Measured values from patent US10485235B2, “Aryloxypyrimidinyl ethers as herbicides” (FMC Corporation, priority 2015, dated 2019).

Experiments:
Type in all cases: in vivo
[1] = system: kochia (Kochia scoparia); test: Test A preemergence, kochia; details: Bassia scoparia, pre-emergence, 240 h, Preemergence, 0 to 100 scale (0 no effect, 100 complete control), read-out: Plant response rating, Kochia; for pest or weed control at 125 g/ha: 125 g ai/ha; for pest or weed control at 500 g/ha: 500 g ai/ha
In short: (§1)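 Pre- and postemergence greenhouse screen in loam–sand soil. Test chemicals were delivered in a non-phytotoxic solvent with surfactant, preemergence as a directed spray onto seeded soil and postemergence onto 2–10 cm seedlings. Injury was judged by eye after ~10 days on a 0–100 scale.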

[2] = system: ryegrass, Italian (Italian ryegrass, Lolium multiflorum); test: Test A preemergence, Italian ryegrass; details: Lolium multiflorum, pre-emergence, 240 h, Preemergence, 0 to 100 scale (0 no effect, 100 complete control), read-out: Plant response rating, Ryegrass, Italian; for pest or weed control at 125 g/ha: 125 g ai/ha; for pest or weed control at 500 g/ha: 500 g ai/ha
In short: as §1

[3] = system: foxtail, giant (giant foxtail, Setaria faberii); test: Test A preemergence, giant foxtail; details: Setaria faberi, pre-emergence, 240 h, Preemergence, 0 to 100 scale (0 no effect, 100 complete control), read-out: Plant response rating, Foxtail, Giant; for pest or weed control at 125 g/ha: 125 g ai/ha; for pest or weed control at 500 g/ha: 500 g ai/ha
In short: as §1

[4] = system: pigweed (Amaranthus retroflexus); test: Test A preemergence, pigweed; details: Amaranthus retroflexus, pre-emergence, 240 h, Preemergence, 0 to 100 scale (0 no effect, 100 complete control), read-out: Plant response rating, Pigweed; for pest or weed control at 125 g/ha: 125 g ai/ha; for pest or weed control at 500 g/ha: 500 g ai/ha
In short: as §1

[5] = system: kochia (Kochia scoparia); test: Test A postemergence, kochia; details: Bassia scoparia, post-emergence, 240 h, postemergence, 0 to 100 scale, 0 is no effect, 100 is complete control, approximately 10 days, read-out: Plant response rating, Kochia; for pest or weed control at 125 g/ha: 125 g ai/ha; for pest or weed control at 500 g/ha: 500 g ai/ha
In short: as §1

[6] = system: ryegrass, Italian (Italian ryegrass, Lolium multiflorum); test: Test A postemergence, Italian ryegrass; details: Lolium multiflorum, post-emergence, 240 h, postemergence, 0 to 100 scale, 0 is no effect, 100 is complete control, approximately 10 days, read-out: Plant response rating, Ryegrass, Italian; for pest or weed control at 125 g/ha: 125 g ai/ha; for pest or weed control at 500 g/ha: 500 g ai/ha
In short: as §1

[7] = system: foxtail, giant (giant foxtail, Setaria faberii); test: Test A postemergence, giant foxtail; details: Setaria faberi, post-emergence, 240 h, postemergence, 0 to 100 scale, 0 is no effect, 100 is complete control, approximately 10 days, read-out: Plant response rating, Foxtail, Giant; for pest or weed control at 125 g/ha: 125 g ai/ha; for pest or weed control at 500 g/ha: 500 g ai/ha
In short: as §1

[8] = system: pigweed (Amaranthus retroflexus); test: Test A postemergence, pigweed; details: Amaranthus retroflexus, post-emergence, 240 h, postemergence, 0 to 100 scale, 0 is no effect, 100 is complete control, approximately 10 days, read-out: Plant response rating, Pigweed; for pest or weed control at 125 g/ha: 125 g ai/ha; for pest or weed control at 500 g/ha: 500 g ai/ha
In short: as §1

[9] = system: wheat (Triticum aestivum); test: Test A postemergence, wheat; details: Triticum aestivum, post-emergence, 240 h, postemergence, 0 to 100 scale, 0 is no effect, 100 is complete control, approximately 10 days, read-out: Plant response rating, Wheat; for plant injury at 125 g/ha: 125 g ai/ha; for plant injury at 500 g/ha: 500 g ai/ha
In short: as §1

[10] = system: blackgrass (Alopecurus myosuroides); test: Test A postemergence, blackgrass; details: Alopecurus myosuroides, post-emergence, 240 h, postemergence, 0 to 100 scale, 0 is no effect, 100 is complete control, approximately 10 days, read-out: Plant response rating, Blackgrass; for pest or weed control at 125 g/ha: 125 g ai/ha; for pest or weed control at 500 g/ha: 500 g ai/ha
In short: as §1

[11] = system: galium (catchweed bedstraw, Galium aparine); test: Test A postemergence, galium; details: Galium, post-emergence, 240 h, postemergence, 0 to 100 scale, 0 is no effect, 100 is complete control, approximately 10 days, read-out: Plant response rating, Galium; for pest or weed control at 125 g/ha: 125 g ai/ha; for pest or weed control at 500 g/ha: 500 g ai/ha
In short: as §1

[12] = system: rice (Oryza sativa); test: Test B flooded paddy test, rice; details: Oryza sativa; 250 g ai/ha, Flood; visual rating after 13 to 15 days; scale 0 to 100, 0 is no effect, 100 is complete control; read-out: Plant response rating, Rice
In short: (§2)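 2-leaf plants; flood to 3 cm, dose into water, hold depth; greenhouse 13–15 d; visual score 0–100 vs controls; dash = not tested.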

[13] = system: sedge, umbrella (small-flower umbrella sedge, Cyperus difformis); test: Test B flooded paddy test, umbrella sedge; details: Cyperus difformis; 250 g ai/ha, Flood; visual rating after 13 to 15 days; scale 0 to 100, 0 is no effect, 100 is complete control; read-out: Plant response rating, Sedge, Umbrella
In short: as §2

[14] = system: barnyardgrass (Echinochloa crus-galli); test: Test B flooded paddy test, barnyardgrass; details: Echinochloa crus-galli; 250 g ai/ha, Flood; visual rating after 13 to 15 days; scale 0 to 100, 0 is no effect, 100 is complete control; read-out: Plant response rating, Barnyardgrass
In short: as §2

| SMILES | pest or weed control at 125 g/ha [1] [%] | pest or weed control at 500 g/ha [1] [%] | pest or weed control at 125 g/ha [2] [%] | pest or weed control at 500 g/ha [2] [%] | pest or weed control at 125 g/ha [3] [%] | pest or weed control at 500 g/ha [3] [%] | pest or weed control at 125 g/ha [4] [%] | pest or weed control at 500 g/ha [4] [%] | pest or weed control at 125 g/ha [5] [%] | pest or weed control at 500 g/ha [5] [%] | pest or weed control at 125 g/ha [6] [%] | pest or weed control at 500 g/ha [6] [%] | pest or weed control at 125 g/ha [7] [%] | pest or weed control at 500 g/ha [7] [%] | pest or weed control at 125 g/ha [8] [%] | pest or weed control at 500 g/ha [8] [%] | plant injury at 125 g/ha [9] [%] | plant injury at 500 g/ha [9] [%] | pest or weed control at 125 g/ha [10] [%] | pest or weed control at 500 g/ha [10] [%] | also measured |
| --- | --- | --- | --- | --- | --- | --- | --- | --- | --- | --- | --- | --- | --- | --- | --- | --- | --- | --- | --- | --- | --- |
| CCCCOc1c(Br)cccc1Oc1ncc(Cl)cn1 [Compound 13, 2-[3-bromo-2-(butoxy)phenoxy]-5-chloropyrimidine] | 80 | 100 | 10 | 90 | 100 | 100 | 100 | 100 | 100 | 100 | 20 | 90 | 90 | 100 | 100 | 100 | 20 | 40 | 50 | 100 | pest or weed control at 125 g/ha [11]: 90%; pest or weed control at 500 g/ha [11]: 100%; plant injury at 250 g/ha [12]: 20%; pest or weed control at 250 g/ha [13]: 95%; pest or weed control at 250 g/ha [14]: 0% |
| FC(F)C(F)(F)COc1c(Br)cccc1Oc1ncc(Cl)cn1 [Compound 18, 2-[3-bromo-2-(2,2,3,3-tetrafluoropropoxy)phenoxy]-5-chloropyrimidine] | 30 | 100 | 10 | 100 | 100 | 100 | 100 | 100 | 100 | 100 | 0 | 60 | 40 | 100 | 100 | 100 | 0 | 20 | 20 | 80 | pest or weed control at 125 g/ha [11]: 80%; pest or weed control at 500 g/ha [11]: 100%; plant injury at 250 g/ha [12]: 0%; pest or weed control at 250 g/ha [13]: 0%; pest or weed control at 250 g/ha [14]: 0% |
